Consider 19 compounds from patent US20260232658A1, “AZETIDINYL BENZOXAZOLE COMPOUNDS AND THEIR USE AS MER AND AXL INHIBITORS” (DONG-A ST CO., LTD., priority 2022, published 2026).

Experiment [1] addresses T1, human MER (528-end) (Homo sapiens, UniProt Q12866).
T1 construct: human MER (528-end); purchased Carnabio, Japan
T1 sequence (Q12866 528-999 limits assumed): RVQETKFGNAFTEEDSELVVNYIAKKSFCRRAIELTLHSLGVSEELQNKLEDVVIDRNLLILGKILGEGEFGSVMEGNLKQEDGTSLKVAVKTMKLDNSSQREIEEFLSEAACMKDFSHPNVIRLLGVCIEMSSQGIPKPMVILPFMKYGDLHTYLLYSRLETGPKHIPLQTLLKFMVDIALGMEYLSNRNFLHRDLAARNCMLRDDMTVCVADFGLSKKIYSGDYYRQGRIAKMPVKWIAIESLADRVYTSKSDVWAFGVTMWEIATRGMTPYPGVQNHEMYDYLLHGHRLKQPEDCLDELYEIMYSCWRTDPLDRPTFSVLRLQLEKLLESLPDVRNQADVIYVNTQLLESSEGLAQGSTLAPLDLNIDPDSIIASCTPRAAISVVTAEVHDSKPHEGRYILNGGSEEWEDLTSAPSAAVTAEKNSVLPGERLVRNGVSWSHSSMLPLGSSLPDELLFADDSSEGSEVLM
Description: HTRF kinase activity biochemical assay, MER.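 Also: phosphorylation of a biotin-tagged tyrosine kinase substrate detected by Eu3+-cryptate antibody and streptavidin-XL665 time-resolved fluorescence, read after 1 h at room temperature.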 The note with it: recombinant kinase, 10 uM ATP, 30 minutes pre-incubation; read-out: HTRF MERTK IC50. A general note: Time-resolved FRET reads energy transfer from a long-lived donor to a nearby acceptor.

The target of experiment [2] is T2, human AXL (473-end) (Homo sapiens, UniProt P30530).
T2 construct: human AXL (473-end); purchased SignalChem, Canada
T2 sequence (P30530 473-894 limits assumed): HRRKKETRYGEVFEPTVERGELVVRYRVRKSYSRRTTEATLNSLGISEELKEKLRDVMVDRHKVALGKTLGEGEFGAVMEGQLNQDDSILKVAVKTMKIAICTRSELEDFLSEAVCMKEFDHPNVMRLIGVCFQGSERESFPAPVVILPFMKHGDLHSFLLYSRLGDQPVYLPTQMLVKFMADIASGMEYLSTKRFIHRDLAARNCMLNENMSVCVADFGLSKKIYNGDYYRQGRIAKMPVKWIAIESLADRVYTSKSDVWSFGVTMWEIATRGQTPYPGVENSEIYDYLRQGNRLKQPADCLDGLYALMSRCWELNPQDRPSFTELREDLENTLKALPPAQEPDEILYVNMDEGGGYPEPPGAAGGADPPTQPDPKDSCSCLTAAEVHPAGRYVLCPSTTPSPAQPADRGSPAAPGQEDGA
Briefly: HTRF kinase activity biochemical assay, AXL.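 Also: phosphorylation of a biotinylated tyrosine kinase substrate detected via Eu3+-cryptate anti-TK antibody and streptavidin-XL665, fluorescence read after a 1 h incubation at room temperature.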 Particulars: recombinant kinase, 10 uM ATP, 30 minutes pre-incubation; read-out: HTRF AXL IC50.

Experiment [3] concerns the target T3, TYRO3 (455-end) (Homo sapiens, UniProt Q06418).
T3 construct: TYRO3 (455-end); purchased SignalChem, Canada
T3 sequence (Q06418 455-890 limits assumed): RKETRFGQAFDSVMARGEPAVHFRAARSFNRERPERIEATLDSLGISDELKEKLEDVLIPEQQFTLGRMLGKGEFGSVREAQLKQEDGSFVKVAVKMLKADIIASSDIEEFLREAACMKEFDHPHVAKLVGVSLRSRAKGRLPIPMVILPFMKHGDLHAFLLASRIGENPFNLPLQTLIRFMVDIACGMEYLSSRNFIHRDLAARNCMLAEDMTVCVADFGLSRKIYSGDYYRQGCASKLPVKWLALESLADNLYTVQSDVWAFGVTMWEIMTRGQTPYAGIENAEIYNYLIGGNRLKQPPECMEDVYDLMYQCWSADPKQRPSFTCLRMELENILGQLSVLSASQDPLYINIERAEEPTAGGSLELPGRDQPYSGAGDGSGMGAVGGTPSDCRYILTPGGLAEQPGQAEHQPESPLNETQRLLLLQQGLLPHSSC
Briefly: HTRF kinase activity biochemical assay, TYRO3.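 Also: biotinylated tyrosine kinase substrate phosphorylation detected via streptavidin-XL665 and Eu3+-cryptate anti-phospho antibody time-resolved fluorescence, read after 1 h detection at room temperature, 384-well format.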 Particulars: recombinant kinase, 10 uM ATP, 30 minutes pre-incubation; read-out: HTRF TYRO IC50.

Usually IC50 stands for the concentration that gives 50% inhibition. Consider `COC/C=C/c1ccc2nc(N3CC(c4cnc(Nc5cnn(C)c5)c(C(N)=O)n4)C3)oc2c1` [Example 22, 6-(1-{6-[(1E)-3-methoxyprop-1-en-1-yl]-1,3-benzoxazol-2-yl}azetidin-3-yl)-3-[(1-methyl-1H-pyrazol-4-yl)amino]pyrazine-2-carboxamide], for which the results for the IC50 in experiment [1], in experiment [2] and in experiment [3] were below 1 nM, below 1 nM and 90 nM, respectively.

As to `Cn1cc(Nc2ncc(C3CN(c4nc5ccc(OCC6CC6)cc5o4)C3)nc2C(N)=O)cn1` [Example 23, 6-{1-[6-(cyclopropylmethoxy)-1,3-benzoxazol-2-yl]azetidin-3-yl}-3-[(1-methyl-1H-pyrazol-4-yl)amino]pyrazine-2-carboxamide], the results for the IC50 in experiment [1], in experiment [2] and in experiment [3] were below 1 nM, below 1 nM and 8 nM, respectively.

For the compound `Cn1cc(Nc2ncc(C3CN(c4nc5ccc(OCC#N)cc5o4)C3)nc2C(N)=O)cn1` [Example 24, 6-{1-[6-(cyanomethoxy)-1,3-benzoxazol-2-yl]azetidin-3-yl}-3-[(1-methyl-1H-pyrazol-4-yl)amino]pyrazine-2-carboxamide], the IC50 in experiment [1] was determined as 2 nM; in experiment [2] it was 3 nM; in experiment [3], 130 nM.

Consider `Cn1cc(Nc2ncc(C3CN(c4nc5ccc(CC(CO)CO)cc5o4)C3)nc2C(N)=O)cn1` [Example 25, 6-(1-{6-[3-hydroxy-2-(hydroxymethyl)propyl]-1,3-benzoxazol-2-yl}azetidin-3-yl)-3-[(1-methyl-1H-pyrazol-4-yl)amino]pyrazine-2-carboxamide], for which the IC50 is 7 nM in experiment [1], 10 nM in experiment [2] and 1100 nM in experiment [3].

Regarding `CCOC(=O)COc1ccc2nc(N3CC(c4cnc(Nc5cnn(C)c5)c(C(N)=O)n4)C3)oc2c1` [Example 26, ethyl {[2-(3-{6-carbamoyl-5-[(1-methyl-1H-pyrazol-4-yl)amino]pyrazin-2-yl}azetidin-1-yl)-1,3-benzoxazol-6-yl]oxy}acetate], the values for the IC50 in experiment [1], in experiment [2] and in experiment [3] were below 1 nM, 3 nM and 94 nM, respectively.

Take `NC(=O)c1nc(C2CN(c3nc4ccc(F)cc4o3)C2)cnc1Nc1cnn(C2CCOCC2)c1` [Example 27, 6-[1-(6-fluoro-1,3-benzoxazol-2-yl)azetidin-3-yl]-3-{[1-(oxan-4-yl)-1H-pyrazol-4-yl]amino}pyrazine-2-carboxamide]: the IC50 in experiment [1] came out at 1 nM; in experiment [2], 3 nM; in experiment [3] it was 82 nM.

As to `COCCn1cc(Nc2ncc(C3CN(c4nc5ccccc5o4)C3)nc2C(N)=O)cn1` [Example 29, 6-[1-(1,3-benzoxazol-2-yl)azetidin-3-yl]-3-{[1-(2-methoxyethyl)-1H-pyrazol-4-yl]amino}pyrazine-2-carboxamide], the half-maximal inhibitory concentration (IC50) in experiment [1] was determined as 5 nM; in experiment [2] it was 10 nM; in experiment [3] it was 340 nM.

Take `Cn1cc(Nc2ncc(C3CN(c4nc5ccc(CCCO)cc5o4)C3)nc2C(N)=O)cn1` [Example 32, 6-{1-[6-(3-hydroxypropyl)-1,3-benzoxazol-2-yl]azetidin-3-yl}-3-[(1-methyl-1H-pyrazol-4-yl)amino]pyrazine-2-carboxamide]: the IC50 in experiment [1] is 1 nM; in experiment [2] it was 3 nM; in experiment [3], 190 nM.

On to `Cn1cc(Nc2ncc(C3CN(c4nc5ccc(/C=C/CO)cc5o4)C3)nc2C(N)=O)cn1` [Example 32A, 6-(1-{6-[(1E)-3-hydroxyprop-1-en-1-yl]-1,3-benzoxazol-2-yl}azetidin-3-yl)-3-[(1-methyl-1H-pyrazol-4-yl)amino]pyrazine-2-carboxamide], for which the IC50 is below 1 nM in experiment [1], 2 nM in experiment [2] and 140 nM in experiment [3].

As to `COCCCc1ccc2nc(N3CC(c4cnc(Nc5cnn(C)c5)c(C(N)=O)n4)C3)oc2c1` [Example 33, 6-{1-[6-(3-methoxypropyl)-1,3-benzoxazol-2-yl]azetidin-3-yl}-3-[(1-methyl-1H-pyrazol-4-yl)amino]pyrazine-2-carboxamide], the IC50 in experiment [1] was 1 nM; in experiment [2] it was 2 nM; in experiment [3], 130 nM.

As for `CN(C)C(=O)Cn1cc(Nc2ncc(C3CN(c4nc5ccccc5o4)C3)nc2C(N)=O)cn1` [Example 34, 6-[1-(1,3-benzoxazol-2-yl)azetidin-3-yl]-3-({1-[2-(dimethylamino)-2-oxoethyl]-1H-pyrazol-4-yl}amino)pyrazine-2-carboxamide], the IC50 in experiment [1] is 8 nM; in experiment [2] it was 19 nM; in experiment [3], 620 nM.

As to `NC(=O)c1nc(C2CN(c3nc4ccc(F)cc4o3)C2)cnc1Nc1cnn(CC(O)CO)c1` (stereo not drawn) [Example 36, 3-{[1-(2,3-dihydroxypropyl)-1H-pyrazol-4-yl]amino}-6-[1-(6-fluoro-1,3-benzoxazol-2-yl)azetidin-3-yl]pyrazine-2-carboxamide], the figures for the IC50 in experiment [1], in experiment [2] and in experiment [3] were 1 nM, 9 nM and 170 nM, respectively.

As for `NC(=O)c1nc(C2CN(c3nc4ccc(F)cc4o3)C2)cnc1Nc1cn[nH]c1` [Example 36C, 6-[1-(6-fluoro-1,3-benzoxazol-2-yl)azetidin-3-yl]-3-[(1H-pyrazol-4-yl)amino]pyrazine-2-carboxamide], the IC50 in experiment [1] is 1 nM; in experiment [2], 3 nM; in experiment [3], above 10000 nM.

`CC1(C)OCC(Cn2cc(Nc3ncc(C4CN(c5nc6ccc(F)cc6o5)C4)nc3C(N)=O)cn2)O1` (stereo not drawn) [Example 36D, 3-({1-[(2,2-dimethyl-1,3-dioxolan-4-yl)methyl]-1H-pyrazol-4-yl}amino)-6-[1-(6-fluoro-1,3-benzoxazol-2-yl)azetidin-3-yl]pyrazine-2-carboxamide]: the figures for the IC50 in experiment [1], in experiment [2] and in experiment [3] were 3 nM, 10 nM and 430 nM, respectively.

In the case of `Cn1cc(Nc2ncc(C3CN(c4nc5ccc(OCC(N)=O)cc5o4)C3)nc2C(N)=O)cn1` [Example 37, 6-{1-[6-(2-amino-2-oxoethoxy)-1,3-benzoxazol-2-yl]azetidin-3-yl}-3-[(1-methyl-1H-pyrazol-4-yl)amino]pyrazine-2-carboxamide], the IC50 in experiment [1] turned out to be 10 nM; in experiment [2], 29 nM; in experiment [3], 2130 nM.

Take `Cn1cc(Nc2ncc(C3CN(c4nc5ccc(OCCO)cc5o4)C3)nc2C(N)=O)cn1` [Example 40, 6-{1-[6-(2-hydroxyethoxy)-1,3-benzoxazol-2-yl]azetidin-3-yl}-3-[(1-methyl-1H-pyrazol-4-yl)amino]pyrazine-2-carboxamide]: the half-maximal inhibitory concentration (IC50) in experiment [1] was determined as 2 nM; in experiment [2] it was 8 nM; in experiment [3], 460 nM.

`Cn1cc(Nc2ncc(C3CN(c4nc5ccc(OCC6COC6)cc5o4)C3)nc2C(N)=O)cn1` [Example 41, 3-[(1-methyl-1H-pyrazol-4-yl)amino]-6-(1-{6-[(oxetan-3-yl)methoxy]-1,3-benzoxazol-2-yl}azetidin-3-yl)pyrazine-2-carboxamide]: the IC50 in experiment [1] is below 1 nM; in experiment [2] it was 2 nM; in experiment [3], 210 nM.

With `Cn1cc(Nc2ncc(C3CN(c4nc5ccc(OCC6CC(O)C6)cc5o4)C3)nc2C(N)=O)cn1` (stereo not drawn) [Example 42, 6-(1-{6-[(3-hydroxycyclobutyl)methoxy]-1,3-benzoxazol-2-yl}azetidin-3-yl)-3-[(1-methyl-1H-pyrazol-4-yl)amino]pyrazine-2-carboxamide], the half-maximal inhibitory concentration (IC50) in experiment [1] is below 1 nM; in experiment [2] it was 2 nM; in experiment [3], 64 nM.

With `Cn1cc(Nc2ncc(C3CN(c4nc5ccc(OCC(O)CO)cc5o4)C3)nc2C(N)=O)cn1` (stereo not drawn) [Example 43, 6-{1-[6-(2,3-dihydroxypropoxy)-1,3-benzoxazol-2-yl]azetidin-3-yl}-3-[(1-methyl-1H-pyrazol-4-yl)amino]pyrazine-2-carboxamide], the IC50 in experiment [1] was found to be 9 nM; in experiment [2] it was 25 nM; in experiment [3], 2140 nM.
